Here are results for 24 compounds from US20140275711A1, “1-(Arylmethyl)-5,6,7,8-tetrahydroquinazolline-2,4-diones and Analogs and the Use Thereof” (Impact Therapeutics, Inc., priority 2011, published 2014).

The structures appear in SMILES notation. Like-named read-outs stand apart in the source and are kept apart here.

The test system of assay [1] is SW620 human colorectal cancer cells. Put plainly: Potentiation of the growth inhibiting activity of MMS, MTT based cell viability assay. The note with it: read-out: Compounds potentiate the growth inhibiting activity of MMS (IC50).
Protocol: The synergistic potentiation effect of PARP inhibitors on the growth inhibiting activity of DNA damaging anticancer drugs such as methyl methanesulphonate (MIMS) were measured with SW620 human colorectal cancer cells (Shanghai Cancer Institute) using a MTT based cell viability assay. SW620 cells were grown and maintained in RPMI1640 (Gibco) medium supplemented with 10% FBS (Hyclone). In the first day of experiment, 4000 cells were seeded to each well of a 96-well cell culture plate and incubated at 37° C. and 5% CO2 in a cell culture incubator overnight. In the next day, the cell culture medium was removed. […] The serial dilutions of the reference compounds and the compounds to be tested were made with a 1:3 and 1:10 fashion in DMSO. The 10-fold concentrated solutions of these compounds were made by mixing 10 μl of the serial dilutions in DMSO with 90 μl fresh medium. The final concentration of DMSO in the medium was 1%. The cells were incubated at 37° C. in 5% CO2 cell culture incubator for additional 5 days (120 hours). Afterwards, the 96-well cell culture plate was taken out and 20 μl of MTT solution was added to each well and incubated at 37° C. for 4 h. The medium was removed and 100 μl DMSO was added to each well. The 96-well cell culture plates were shaked adequately for 10 min and readed in a Varioskan Flash plate reader (Thermo Fisher Scientific) at 520 and 690 nm. The data were analyzed by Prism 5 software (GraphPad). The obtained 520 nm absorbance readings substracting corresponding 690 nm reading were analyzed and plotted against the Log scale of the compound concentrations.
The test system of assay [2] is BRCA-2 deficient CAPAN-1 human pancreatic cancer cells. Briefly: Cell growth inhibition of BRCA-2 deficient CAPAN-1 cells, MTT based cell viability assay. The note with it: read-out: Growth inhibition of CAPAN-1 cells by compounds (IC50).
Protocol: BRCA-2 deficient CAPAN-1 human pancreatic cancer cells were used to test the growth inhibiting activity of substituted 1-(arylmethyl)-5,6,7,8-tetrahydroquinazoline-2,4(1H,3H)-diones. Briefly, CAPAN-1 cells are grown and maintained in IMEM medium supplemented with 20% FBS. The assay takes 10 days to finish. On day 1, 6000 CAPAN-1 cells are seeded to each well of a 96-well plate. The cells are incubated at 37° C. in a CO2 cell culture incubator overnight. […] Ten-fold compound solutions were made by mixing 10 μl DMSO serial dilution solutions with 90 μl fresh growth medium. The cell culture medium was removed and 180 μl fresh media with FBS and 20 μl of compound solutions were added to each well. The final concentration of DMSO was 1%. Cells were then returned to the CO2 cell culture incubator and incubated at 37° C. for two days (day 3 and day 4). On day 5, the same procedure as what was done on day 2 was repeated. Cell culture medium was removed and fresh medium containing serial dilutions of compounds or reference compounds were added. Cells were returned to the CO2 cell culture incubator and incubated for two more days. On day 8, same procedure was repeated again and fresh medium containing the testing compounds or reference compounds were added and incubated for an additional 2 days. On day 10, 20 μl of MTT reagent (5 mg/ml) was added to each well of the cell culture plate and incubated for 4 h. The cell culture media was removed and 100 μl DMSO was added to each well. The 96-well cell culture plates were shaked horizontally for 10 min and readed in a Varioskan Flash plate reader (Thermo Fisher Scientific) at 520 and 690 nm. The obtained 520 nm absorbance readings substracting corresponding 690 nm reading were analyzed using a commercial graphic software (GraphPad Prism 5) and plotted against the Log scale of the compound concentrations.
For assay [3], the system named is Human breast cancer cell line T47D. Put plainly: Potentiation of MMS induced apoptosis, cell based caspase-3 activity assay.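 Further: Caspase-3 activity in cell lysates measured by fluorescence (RFU), EC50 fitted from sigmoidal curve of signal versus log compound concentration in presence of MMS.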 Particulars: read-out: Compounds potentiate the apoptosis inducing activity of MMS (EC50).
Protocol: Human breast cancer cell line T47D (Nanjing KeyGEN Biotech. CO., LTD.) was used to determine the potentiation effect of PARP-1 inhibitors on the apoptosis inducing activity of DNA damaging anticancer drugs such as MMS. Intracellular caspase-3 activity was used to measure cell apoptosis. Briefly, T47D cells were grown in DMEM/F12 cell culture medium (Hyclone) supplemented with 0.2 U/ml insulin (Genview) and 10% FBS (Hyclone). A day before experiment, 20000 of T47D cells were seeded to each well of a 96-well cell culture plate and maintained at 37° C. and 5% CO2 in a cell culture incubator overnight. On the day of experiment, cell culture medium was removed. […] The serial dilutions of the compounds to be tested and the reference compounds were made in a 1:3 and 1:10 fashion in DMSO. The 10-fold compound solutions were made by mixing 10 μl DMSO serial dilution solutions with 90 μl fresh growth medium. Twenty four hours later, the cells in the 96-well plates were centrifuged at 1000 g for 5 min and the supernatants were removed. 50 μl lysis buffer (10 mM Tris, pH 7.5, 0.1M NaCl, 1 mM EDTA, 0.01% Triton X-100) was added to each well and the plates were shaked horizontally for 30 min at 4° C. After centrifugation at 1000 g at 4° C. for 10 min, 20 μl of supernatant was transferred from each well to a corresponding well in a 384-well black plate. […] The plates were shaked to uniformly mix the wells and incubated at 37° C. for 3 h. […] The caspase-3 activity induced by the compounds was expressed as a relative fluorescence unit (RFU). The obtained fluorescence readings were analyzed using a commercial graphic software (GraphPad Prism 5) and plotted against the Log value of the compound concentrations. The EC50 values were obtained by fitting the data points with the equation of Y (fluorescence reading)=minimal fluorescence reading+(maximal fluorescence reading−minimal fluorescence reading)/(1+10̂(LogEC50−LogC)), where C is the concentration of the testing compound. The EC50 values were obtained by fitting the data points with S-shaped dose response curve equation (GraphPad Software, Inc).
Setting [4] is: SW620 cells, medium containing 1.5 μg/ml MMS, 5 days (120 hours), MTT.
Setting [5] is: BRCA-2 deficient CAPAN-1 cells, 10 day assay, MTT.
The mark [6] stands for this setting: T47D cells, 100 nM MMS, 24 hours, intracellular caspase-3 activity.

Broadly, the IC50 is the concentration at which inhibition is half-maximal. In general, EC50 refers to the midpoint of the concentration-response curve. As for `O=C(c1cccc(Cn2c3c(c(=O)[nH]c2=O)CCCC3)c1)N1CCN(c2ccccn2)CC1` [Example 11, 1-(3-(4-(Pyridin-2-yl)piperazine-1-carbonyl)benzyl)-5,6,7,8-tetrahydroquinazoline-2,4(1H,3H)-dione], the IC50 in assay [1] (Homo sapiens, SW-620, 120 h) worked out at 0.0069 µM; in assay [2] (Homo sapiens, CAPAN-1, 240 h), 0.032 µM. Moreover, the half-maximal effective concentration (EC50) in assay [3] (Homo sapiens, T47D, 24 h) was 0.031 µM.
With `O=C(c1ccccc1)N1CCN(C(=O)c2cc(Cn3c4c(c(=O)[nH]c3=O)CCCC4)ccc2F)CC1` [Example 18, 1-(4-Fluoro-3-(4-benzoylpiperazine-1-carbonyl)benzyl)-5,6,7,8-tetrahydroquinazoline-2,4(1H,3H)-dione], the IC50 was found to be 0.0095 µM in assay [1] (Homo sapiens, SW-620, 120 h) and 0.035 µM in assay [2] (Homo sapiens, CAPAN-1, 240 h). For the same compound, the EC50 in assay [3] (Homo sapiens, T47D, 24 h) turned out to be 0.041 µM.
For `O=C(c1cccs1)N1CCN(C(=O)c2cc(Cn3c4c(c(=O)[nH]c3=O)CCCC4)ccc2F)CC1` [Example 21, 1-(4-Fluoro-3-(4-(thiophene-2-carbonyl)piperazine-1-carbonyl)benzyl)-5,6,7,8-tetrahydroquinazoline-2,4(1H,3H)-dione], in that order: 0.0013 µM, 0.101 µM and 0.0028 µM.
`O=C(c1cc(Cn2c3c(c(=O)[nH]c2=O)CCCC3)ccc1F)N1CCN(C(=O)C2CCC2)CC1` [Example 22, 1-(4-Fluoro-3-(4-(cyclobutylcarbonyl)piperazine-1-carbonyl)benzyl)-5,6,7,8-tetrahydroquinazoline-2,4(1H,3H)-dione]: the IC50 in assay [1] (Homo sapiens, SW-620, 120 h) turned out to be 0.0017 µM; in assay [2] (Homo sapiens, CAPAN-1, 240 h), 0.117 µM. Further, the EC50 in assay [3] (Homo sapiens, T47D, 24 h) was 0.0028 µM.
As for `O=C(c1cc(Cn2c3c(c(=O)[nH]c2=O)CCCC3)ccc1F)N1CCN(c2nccs2)CC1` [Example 23, 1-(4-Fluoro-3-(4-(thiazol-2-yl)piperazine-1-carbonyl)benzyl)-5,6,7,8-tetrahydroquinazoline-2,4(1H,3H)-dione], the IC50 was 0.0015 µM in assay [1] (Homo sapiens, SW-620, 120 h) and 0.049 µM in assay [2] (Homo sapiens, CAPAN-1, 240 h). In assay [3] (Homo sapiens, T47D, 24 h), the EC50 worked out at 0.0016 µM.
As for `O=C(c1cc(Cn2c3c(c(=O)[nH]c2=O)CCCC3)ccc1F)N1CCN(C(=O)C2CCCCC2)CC1` [Example 24, 1-(4-Fluoro-3-(4-(cyclohexylcarbonyl)piperazine-1-carbonyl)benzyl)-5,6,7,8-tetrahydroquinazoline-2,4(1H,3H)-dione], the IC50 stood at 0.0036 µM in assay [1] (Homo sapiens, SW-620, 120 h) and 0.058 µM in assay [2] (Homo sapiens, CAPAN-1, 240 h). Moreover, in assay [3] (Homo sapiens, T47D, 24 h), the EC50 turned out to be 0.0099 µM.
The corresponding values for `O=C(c1cc(Cn2c3c(c(=O)[nH]c2=O)CCCC3)ccc1F)N1CCN(C(=O)C2CCCC2)CC1` [Example 25, 1-(4-Fluoro-3-(4-(cyclopentylcarbonyl)piperazine-1-carbonyl)benzyl)-5,6,7,8-tetrahydroquinazoline-2,4(1H,3H)-dione] are 0.0019 µM, 0.069 µM and 0.0062 µM.
The corresponding values for `O=C(c1cc(Cn2c3c(c(=O)[nH]c2=O)CCCC3)ccc1F)N1CCN(c2ccccn2)CC1` [Example 26, 1-(4-Fluoro-3-(4-(pyridin-2-yl)piperazine-1-carbonyl)benzyl)-5,6,7,8-tetrahydroquinazoline-2,4(1H,3H)-dione] are 0.0023 µM, 0.093 µM and 0.0056 µM.
As for `O=C(c1ccco1)N1CCN(C(=O)c2cc(Cn3c4c(c(=O)[nH]c3=O)CCCC4)ccc2F)CC1` [Example 27, 1-(4-Fluoro-3-(4-(furan-2-carbonyl)piperazine-1-carbonyl)benzyl)-5,6,7,8-tetrahydroquinazoline-2,4(1H,3H)-dione], the IC50 amounted to 0.0097 µM in assay [1] (Homo sapiens, SW-620, 120 h) and 0.081 µM in assay [2] (Homo sapiens, CAPAN-1, 240 h). Besides, in assay [3] (Homo sapiens, T47D, 24 h), the concentration for a half-maximal effect (EC50) came to 0.058 µM.
Turning to `O=C(c1cc(Cn2c3c(c(=O)[nH]c2=O)CCCC3)ccc1F)N1CCN(c2cnccn2)CC1` [Example 28, 1-(4-Fluoro-3-(4-(pyrazin-2-yl)piperazine-1-carbonyl)benzyl)-5,6,7,8-tetrahydroquinazoline-2,4(1H,3H)-dione], the IC50 in assay [1] (Homo sapiens, SW-620, 120 h) was found to be 0.0049 µM; in assay [2] (Homo sapiens, CAPAN-1, 240 h) it was 0.297 µM. The EC50 in assay [3] (Homo sapiens, T47D, 24 h) turned out to be 0.014 µM.
Regarding `O=C(c1cc(Cn2c3c(c(=O)[nH]c2=O)CCCC3)ccc1F)N1CCN(C2CCCCC2)CC1` [Example 30, 1-(4-Fluoro-3-(4-cyclohexylpiperazine-1-carbonyl)benzyl)-5,6,7,8-tetrahydroquinazoline-2,4(1H,3H)-dione], the IC50 in assay [1] (Homo sapiens, SW-620, 120 h) came out at 0.012 µM; in assay [2] (Homo sapiens, CAPAN-1, 240 h), 1.24 µM. In addition, the 50% effective concentration (EC50) in assay [3] (Homo sapiens, T47D, 24 h) was determined as 0.032 µM.
Regarding `O=C(c1cc(Cn2c3c(c(=O)[nH]c2=O)CCCC3)ccc1F)N1CCN(c2ccccc2)CC1` [Example 33, 1-(4-Fluoro-3-(4-phenylpiperazine-1-carbonyl)benzyl)-5,6,7,8-tetrahydroquinazoline-2,4(1H,3H)-dione], the half-maximal inhibitory concentration (IC50) in assay [1] (Homo sapiens, SW-620, 120 h) was determined as 0.0076 µM; in assay [2] (Homo sapiens, CAPAN-1, 240 h), 3.65 µM. The EC50 in assay [3] (Homo sapiens, T47D, 24 h) stood at 0.187 µM.
For `O=C(c1ccoc1)N1CCN(C(=O)c2cc(Cn3c4c(c(=O)[nH]c3=O)CCCC4)ccc2F)CC1` [Example 35, 1-(4-Fluoro-3-(4-(furan-3-carbonyl)piperazine-1-carbonyl)benzyl)-5,6,7,8-tetrahydroquinazoline-2,4(1H,3H)-dione], in that order: 0.004 µM, 0.285 µM and 0.012 µM.
Take `O=C(c1ccsc1)N1CCN(C(=O)c2cc(Cn3c4c(c(=O)[nH]c3=O)CCCC4)ccc2F)CC1` [Example 36, 1-(4-Fluoro-3-(4-(thiophene-3-carbonyl)piperazine-1-carbonyl)benzyl)-5,6,7,8-tetrahydroquinazoline-2,4(1H,3H)-dione]: the IC50 came to 0.0034 µM in assay [1] (Homo sapiens, SW-620, 120 h) and 0.221 µM in assay [2] (Homo sapiens, CAPAN-1, 240 h). Moreover, the half-maximal effective concentration (EC50) in assay [3] (Homo sapiens, T47D, 24 h) is 0.013 µM.
In the case of `O=C(c1cc(Cn2c3c(c(=O)[nH]c2=O)CCCC3)ccc1F)N1CCN(CC2CCCCC2)CC1` [Example 38, 1-(4-Fluoro-3-(4-(cyclohexylmethyl)piperazine-1-carbonyl)benzyl)-5,6,7,8-tetrahydroquinazoline-2,4(1H,3H)-dione], the IC50 in assay [1] (Homo sapiens, SW-620, 120 h) was 0.01 µM; in assay [2] (Homo sapiens, CAPAN-1, 240 h), 2.27 µM. Further, the 50% effective concentration (EC50) in assay [3] (Homo sapiens, T47D, 24 h) came to 0.025 µM.
Take `O=C(c1cc(Cn2c3c(c(=O)[nH]c2=O)CCCC3)ccc1F)N1CCN(C(=O)C2CCCO2)CC1` (stereo not drawn) [Example 39, 1-(4-Fluoro-3-(4-(tetrahydrofuran-2-carbonyl)piperazine-1-carbonyl)benzyl)-5,6,7,8-tetrahydroquinazoline-2,4(1H,3H)-dione]: the concentration for half-maximal inhibition (IC50) in assay [1] (Homo sapiens, SW-620, 120 h) is 0.015 µM; in assay [2] (Homo sapiens, CAPAN-1, 240 h), 0.152 µM. For the same compound, the EC50 in assay [3] (Homo sapiens, T47D, 24 h) amounted to 0.032 µM.
As for `O=C(c1ccc(F)c(Cn2c3c(c(=O)[nH]c2=O)CCCC3)c1)N1CCN(c2ncccn2)CC1` [Example 41], the IC50 turned out to be 0.0041 µM in assay [1] (setting [4]) and 0.019 µM in assay [2] (setting [5]). The 50% effective concentration (EC50) in assay [3] (setting [6]) stood at 0.0022 µM.
As to `O=C(c1ccc(F)c(Cn2c3c(c(=O)[nH]c2=O)CCCC3)c1)N1CCN(C(=O)C2CCCC2)CC1` [Example 42, 1-(6-Fluoro-3-(4-(cyclopentylcarbonyl)piperazine-1-carbonyl)benzyl)-5,6,7,8-tetrahydroquinazoline-2,4(1H,3H)-dione], the concentration for half-maximal inhibition (IC50) in assay [1] (Homo sapiens, SW-620, 120 h) is 0.0048 µM; in assay [2] (Homo sapiens, CAPAN-1, 240 h), 0.146 µM. For the same compound, in assay [3] (Homo sapiens, T47D, 24 h), the EC50 is 0.004 µM.
For `O=C(c1ccsc1)N1CCN(C(=O)c2ccc(F)c(Cn3c4c(c(=O)[nH]c3=O)CCCC4)c2)CC1` [Example 46, 1-(6-Fluoro-3-(4-(thiophene-3-carbonyl)piperazine-1-carbonyl)benzyl)-5,6,7,8-tetrahydroquinazoline-2,4(1H,3H)-dione], in that order: 0.01 µM, 0.703 µM and 0.013 µM.
The corresponding values for `O=C(c1ccc(F)c(Cn2c3c(c(=O)[nH]c2=O)CCCC3)c1)N1CCN(c2ccccn2)CC1` [Example 47, 1-(6-Fluoro-3-(4-(pyridin-2-yl)piperazine-1-carbonyl)benzyl)-5,6,7,8-tetrahydroquinazoline-2,4(1H,3H)-dione] are 0.0046 µM, 0.116 µM and 0.0064 µM.
The corresponding values for `O=C(c1ccc(F)c(Cn2c3c(c(=O)[nH]c2=O)CCCC3)c1)N1CCN(C(=O)C2CCCCC2)CC1` [Example 49, 1-(6-Fluoro-3-(4-(cyclohexylcarbonyl)piperazine-1-carbonyl)benzyl)-5,6,7,8-tetrahydroquinazoline-2,4(1H,3H)-dione] are 0.0053 µM, 0.123 µM and 0.0072 µM.
Take `O=C(c1ccc(F)c(Cn2c3c(c(=O)[nH]c2=O)CCCC3)c1)N1CCN(C(=O)C2CCC2)CC1` [Example 50, 1-(6-Fluoro-3-(4-(cyclobutylcarbonyl)piperazine-1-carbonyl)benzyl)-5,6,7,8-tetrahydroquinazoline-2,4(1H,3H)-dione]: the half-maximal inhibitory concentration (IC50) in assay [1] (Homo sapiens, SW-620, 120 h) worked out at 0.016 µM; in assay [2] (Homo sapiens, CAPAN-1, 240 h) it was 1.01 µM. Also, in assay [3] (Homo sapiens, T47D, 24 h), the EC50 came to 0.012 µM.
Consider `O=C(c1ccc(F)c(Cn2c3c(c(=O)[nH]c2=O)CCCC3)c1)N1CCN(c2nccs2)CC1` [Example 51, 1-(6-Fluoro-3-(4-(thiazol-2-yl)piperazine-1-carbonyl)benzyl)-5,6,7,8-tetrahydroquinazoline-2,4(1H,3H)-dione], for which the half-maximal inhibitory concentration (IC50) came out at 0.013 µM in assay [1] (Homo sapiens, SW-620, 120 h) and 0.134 µM in assay [2] (Homo sapiens, CAPAN-1, 240 h). Moreover, the EC50 in assay [3] (Homo sapiens, T47D, 24 h) stood at 0.011 µM.
As to `O=C(c1cc(Cn2c3c(c(=O)[nH]c2=O)CCCC3)ccc1F)N1CCN(C(=O)C2CCOCC2)CC1` [Example 53, 1-(4-Fluoro-3-(4-(tetrahydro-2H-pyran-4-carbonyl)piperazine-1-carbonyl)benzyl)-5,6,7,8-tetraquinazoline-2,4(1H,3H)-dione], the IC50 in assay [1] (setting [4]) stood at 0.061 µM; in assay [2] (setting [5]), 0.272 µM. The EC50 in assay [3] (setting [6]) worked out at 0.098 µM.
